Consider 1 compound from patent US20240189278A1, “NOVEL COMPOUNDS AND METHODS FOR INCREASING KLOTHO GENE EXPRESSION” (Klotho Therapeutics, Inc., priority 2017, published 2024).

The subject of one assay is DNA methyltransferase. The assay can be described thus: DNA methyltransferase activity in aged mice. It is filed as in vivo, mouse. The conditions noted are these: 2 weeks treatment. The method, then:
(§1) Animal study protocols. This example was performed according to the guide lines of the National Institute of Health on the care and use of laboratory animals and approved by the institutional Animal Care and Use Committee of University of Oklahoma Health Science Center. AU mice were housed in cages at room temperature (2S±PC) and were provided with Purina laboratory chow No 5001) and tap Water and lithium. 6 adult mice (12 months) and 20 old mice (24-26 months) mice were next in this study. The old (aged) mice were randomly divided into three subgroups and each group had 6 or 7 mice. […] The third group received no treatment Blood pressure was measured before and after treatment with the active agent at 1 week and 2 week. Pulse wave velocity (PWV) was measured after 2 weeks treatment with active agent all animals were sacrificed and perfused transcardially with PBS under deep anesthesia (ketamine xylazine, 90/10 mg, IP). […]
Measurement of DNA Demethylase and DNA Methylation force Activity. The DNA demethylase and DNA methyltransferase activity was measured by using DNA demethylase activity qualification kit (Abeam˜Cambridge, MA) and methyltransferase coloritnetxic assay kit (Cayman Chemical Company, Ann Arbor, Michigan). […] The absorbance was read at […] for DNA methylene activity assay and 510 nm for DNA methyltransferase activity using BioTeck Multi-Mole Microplate Readers.

Another assay concerns TGF-β3. The assay can be described thus: Western blot of TGF-β3, aortas of aged mice. Format: in vivo, mouse. As for the experimental part:
(§2) Animal study protocols. This example was performed according to the guide lines of the National Institute of Health on the care and use of laboratory animals and approved by the institutional Animal Care and Use Committee of University of Oklahoma Health Science Center. AU mice were housed in cages at room temperature (2S±PC) and were provided with Purina laboratory chow No 5001) and tap Water and lithium. 6 adult mice (12 months) and 20 old mice (24-26 months) mice were next in this study. The old (aged) mice were randomly divided into three subgroups and each group had 6 or 7 mice. One subgroup received compound H (10 mg/kg/day1, IP, Enamine LLC, Monmouth Jct., NJ) and one group received an equal volume of DMSO (dimethyl sulfoxide, 5%) and served as a control. The third group received no treatment Blood pressure was measured before and after treatment with the active agent at 1 week and 2 week. Pulse wave velocity (PWV) was measured after 2 weeks treatment with active agent all animals were sacrificed and perfused transcardially with PBS under deep anesthesia (ketamine xylazine, 90/10 mg, IP). […]
(§3) Western Blot Analysis: Protein samples from the thoracic aorta were prepared in Lysis buffer as described previously. […] Protein abundance on western blots was quantified densitometry using Image lab software (Bio-Rad, Hercules, CA).
A general note: Immunoblotting shows a protein as a band on a membrane.

A further assay has as its system MMP2. As to the kind of experiment: Western blot of MMP2, aortas of aged mice. Format: in vivo, mouse. As for the experimental part:
as §2, §3

The test system of the next assay is TGF-β1. The assay can be described thus: Western blot of TGF-β1, aortas of aged mice. Format: in vivo, mouse. The method, then: as §2, §3
The subject of a further assay is Klotho mRNA. As to the kind of experiment: RT-PCR of Klotho mRNA in kidney of aged mice. It is filed as in vivo, mouse. The method, then:
(§4) Animal study protocols. This example was performed according to the guide lines of the National Institute of Health on the care and use of laboratory animals and approved by the institutional Animal Care and Use Committee of University of Oklahoma Health Science Center. AU mice were housed in cages at room temperature (2S±PC) and were provided with Purina laboratory chow No 5001) and tap Water and lithium. 6 adult mice (12 months) and 20 old mice (24-26 months) mice were next in this study. The old (aged) mice were randomly divided into three subgroups and each group had 6 or 7 mice. One subgroup received compound H (10 mg/kg/day1, IP, Enamine LLC, Monmouth Jct., NJ) and one group received an equal volume of DMSO (dimethyl sulfoxide, 5%) and served as a control. The third group received no treatment Blood pressure was measured before and after treatment with the active agent at 1 week and 2 week. Pulse wave velocity (PWV) was measured after 2 weeks treatment with active agent all animals were sacrificed and perfused transcardially with PBS under deep anesthesia (ketamine xylazine, 90/10 mg, IP). The aortas were then quickly removed, washed and cut into pieces for subsequent analyses.
Reverse transcription-PCR (RT-PCR): Total RNA was extracted using a Direct˜zol T!vl RNA Miniprep kit (Zymo Research, Irvine CA) from kidney of adult and aged mice. […]

Another assay has as its system aged mice. The assay can be described thus: Pulse wave velocity (arterial stiffness) in aged mice. Format: in vivo, mouse. Particulars: 10 mg/kg/day IP, 2 weeks treatment. As for the experimental part: as §1
Measurement of Pulse Wave Velocity: Aortic PWV was measured as described previously. […] Velocities were measured with 6-mm crystal […] Doppler probes (Indus Instruments, Webster, TX) at the transverse aortic arch and 3.5 cm distal in the abdominal aorta and collected using Doppler signal processing workstation (Indus instruments). […]

The test system of another assay is SIRT1. As to the kind of experiment: Western blot of SIRT1 and acetyl p53, aortas of aged mice. Format: in vivo, mouse. As for the experimental part:
as §2, §3

A further assay deals with MMP9. The assay can be described thus: Western blot of MMP9, aortas of aged mice. Format: in vivo, mouse. As for the experimental part: as §2, §3
The test system of assay [1] is mouse vascular aortic smooth muscle cells (MOVAS). The assay can be described thus: Western blot of treated MOVAS cells. It is filed as cell-based. Particulars: 10 μM active agent, 16 h. The method, then:
After cells confluent, the media were switched to DMEM with or without 2° A1 serum, and the cells were then treated with 10 μM active agent or 5 nM secreted Klotho for another 16 h then harvested for western blot analysis.
(§5) Western Blot Analysis: Protein samples from the thoracic aorta were prepared in Lysis buffer as described previously. The proteins ([…] were resolved by SOS-PAGE and transferred to a nitrocellulose membrane (Bio-Rad). The membrane was then incubated overnight (4° C.) with a primary antibody against collagen-1-elastin. M1′v1P2; MMP9, ALP (Abeam1 1:1000), TGF-1, TGF˜N3 (Santa Cmz, 1:100). RUX2, or aNTulmliu (Cell Signaling. 1:1000). Goat autimouse or goat anti rabbit horseradish peroxidase (1:2000 . . . 1:5,000; Santa Cruz Biotechnology) was used as a secondary antibody find incubated for 1 hour at room temperature. Specific proteins were detected by chemiluminescent methods using Amersham™ western blotting detection reagents (GE Healthcare, UK). Protein abundance on western blots was quantified densitometry using Image lab software (Bio-Rad, Hercules, CA).

For the next assay, the system named is LC3. As to the kind of experiment: Western blot of LC3 in aortas, hearts and kidneys of old mice. Format: in vivo, mouse.
In another assay the test system is AMPK. The assay can be described thus: Western blot of AMPK and p-AMPK, aortas of aged mice. It is filed as in vivo, mouse. As for the experimental part: as §4, §5

Consider `O=C(Nc1ccccc1Cl)c1c[nH]c2ccccc12` [active agent, N-(2-chlorophenyl)-Ul-indde-3-carboxamide], for which the DNA methyltransferase activity result in the assay with DNA methyltransferase is recorded as “did not affect”. Also, in the assay with TGF-β3, the TGF-β3 expression result is given as “decreased”. Besides, the MMP2 protein expression entry with MMP2 is “decreased”. Moreover, in the assay on TGF-β1, the TGF-β1 expression result is “decreased”. The “Secreted Klotho mRNA expression” value in the assay on Klotho mRNA is “increased”. The “Pulse wave velocity (PWV)” value in the assay with aged mice is “decreased”. Also, in the assay with SIRT1 (aorta of old mice), the “SirT1 activity (deacetylation of p53)” value is “increased”. In addition, the SIRT1 expression result with SIRT1 (aortas of aged mice) was “did not affect”. The MMP9 protein expression entry with MMP9 is listed as “decreased”. In assay [1] (Klotho free medium (KL(−))), the MMP2 expression result is “did not affect”, the MMP9 expression entry is given as “did not affect”, the TGFβ1 expression result was “did not affect” and the TGFβ3 expression entry is “did not affect”. Further, in assay [1] (regular medium), the MMP2 expression entry is “did not change”, the MMP9 expression result is on record as “did not change”, the TGFβ1 expression result is “did not change” and the TGFβ3 expression result was “did not change”. For the same compound, the LC3 expression entry in the assay on LC3 (aortas of old mice) is “did not affect”. In addition, in the assay with LC3 (hearts of old mice), the LC3 expression result is given as “did not affect”. Moreover, the LC3 expression entry in the assay with LC3 (kidneys of old mice) is given as “did not affect”. For the same compound, the AMPK activity result with AMPK (aortas of aged mice) is recorded as “increased”. In addition, in the assay with AMPK (old mice, western blot), the AMPK expression entry was “increased” and the p-AMPK expression result is listed as “increased”.
